From US20240252488A1 (KOREA RESEARCH INSTITUTE OF CHEMICAL TECHNOLOGY, priority 2020, published 2024)

How the values were obtained:
[1] = molecular target: T1, MLKL (Homo sapiens, UniProt Q8NB16); experiment: MLKL degradation assay in HepG2 cell line (western blot); type: cell-based; design: endogenous in cells; host or cells: HepG2 or HaCaT; settings: cell line not given; for Degradation assay (Degradation %) 1 μM: compound 1 μM; for Degradation assay (Degradation %) 10 μM: compound 10 μM
T1 sequence (Q8NB16 1-471): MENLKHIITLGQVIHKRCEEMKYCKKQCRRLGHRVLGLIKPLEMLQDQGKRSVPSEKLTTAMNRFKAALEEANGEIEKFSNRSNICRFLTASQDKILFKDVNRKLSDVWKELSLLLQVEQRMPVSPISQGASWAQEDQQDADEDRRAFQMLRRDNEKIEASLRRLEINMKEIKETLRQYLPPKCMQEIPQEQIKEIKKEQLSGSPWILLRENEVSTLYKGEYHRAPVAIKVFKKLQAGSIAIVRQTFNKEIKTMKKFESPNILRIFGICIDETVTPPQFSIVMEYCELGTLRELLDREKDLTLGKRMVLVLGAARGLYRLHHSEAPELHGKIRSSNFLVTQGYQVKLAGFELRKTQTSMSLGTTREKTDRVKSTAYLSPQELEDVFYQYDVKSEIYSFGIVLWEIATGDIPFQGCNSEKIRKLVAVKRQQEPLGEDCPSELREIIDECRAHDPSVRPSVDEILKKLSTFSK
In short: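 HepG2, cpd final 1 or 10 μM, 20-24 h, 37 °C/5% CO2; RIPA lysis, BCA-normalized, 10-15 μg/lane SDS-PAGE, western blot, ECL read-out.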

[2] = tested on: FADD−/− Jurkat cells; experiment: Necroptosis inhibition assay, TNF-α-induced necroptosis (CellTiter-Glo 2.0); type: cell-based, human; settings: TNF-α 15 ng/mL; for Necroptosis inhibition assay (Rescue %) 1 μM: compound 1 μM; for Necroptosis inhibition assay (Rescue %) 10 μM: compound 10 μM
In short: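 Cmpd 0.1/1/10 μM final, 30 min RT preincubation; TNF-α 15 ng/mL final; 20–24 h, 37° C, 5% CO2. Readout: ATP luminescence (reagent 1:3 in PBS), 0.5 s/well. Cytotoxicity and % necroptosis inhibition calculated from signal.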

[3] = molecular target: T1, MLKL; experiment: Measurement of binding affinity with MLKL receptor (competitive binding assay, Kd); design: made in house; host or cells: HEK 293 cell line (T7 phage in E. coli BL21-derived host is also described)
In short: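 Competitive displacement of MLKL, expressed in HEK 293 cells and DNA-tagged for qPCR, from immobilized ligand on biotin-blocked beads. Compounds were added from 111× DMSO stocks (final DMSO 0.9%). Kinase left in the eluates was quantified by qPCR to give Kd.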

| SMILES | Degradation assay (Degradation %) 1 μM [1] [%] | Degradation assay (Degradation %) 10 μM [1] [%] | Kd [3] [nM] | Necroptosis inhibition assay (Rescue %) 1 μM ([2]; FADD−/− Jurkat cells) [%] | Necroptosis inhibition assay (Rescue %) 10 μM ([2]; FADD−/− Jurkat cells) [%] | Necroptosis inhibition assay (Rescue %) 1 μM [2] [%] | Necroptosis inhibition assay (Rescue %) 10 μM [2] [%] |
| --- | --- | --- | --- | --- | --- | --- | --- |
| Nc1ncc(-c2cnn(C3CCN(C4CC5(CCN(CC6CCN(C(=O)c7ccc(C(=O)NC8CCC(=O)NC8=O)cc7)CC6)CC5)C4)CC3)c2)nc1C(=O)O[C@@H](C(=O)Nc1ccc(F)cc1)c1ccccc1 (stereo partly drawn) [TDH-537, (R)-2-((4-fluorophenyl)amino)-2-oxo-1-phenylethyl 3-amino-6-(1-(1-(7-((1-(4-((2,6-dioxopiperidin-3-yl)carbamoyl)benzoyl)piperidin-4-yl)methyl)-7-azaspiro[3.5]nonan-2-yl)piperidin-4-yl)-1H-pyrazol-4-yl)pyrazine-2-carboxylate] | 64.82 | 86.14 | 0.61 | 32.07 | 30.76 | – | – |
| Nc1ncc(-c2cnn(C3CCN(CC4CN(c5ccc6c(c5)C(=O)N(C5CCC(=O)NC5=O)C6=O)CCO4)CC3)c2)nc1C(=O)OC(C(=O)Nc1ccc(F)cc1)c1ccccc1 (centres unmarked) [TDH-311, 2-((4-fluorophenyl)amino)-2-oxo-1-phenylethyl 3-amino-6-(1-(1-((4-(2-(2,6-dioxopiperidin-3-yl)-1,3-dioxoisoindolin-5-yl)morpholin-2-yl)methyl)piperidin-4-yl)-1H-pyrazol-4-yl)pyrazine-2-carboxylate] | 69.38 | 52.38 | 5.3 | – | – | 57.09 | 39.01 |
| Nc1ncc(-c2cnn(C3CCN(CCOCCOCCOCCNC(=O)CNc4ccc5c(c4)C(=O)N(C4CCC(=O)NC4=O)C5=O)CC3)c2)nc1C(=O)O[C@@H](C(=O)Nc1ccc(F)cc1)c1ccccc1 (stereo partly drawn) [TDH-144, (R)-2-((4-fluorophenyl)amino)-2-oxo-1-phenylethyl 3-amino-6-(1-(1-(1-((2-(2,6-dioxopiperidin-3-yl)-1,3-dioxoisoindolin-5-yl)amino)-2-oxo-6,9,12-trioxa-3-azatetradecan-14-yl)piperidin-4-yl)-1H-pyrazol-4-yl)pyrazine-2-carboxylate] | 58.79 | 86.28 | 2.5 | – | – | 15.23 | 68.71 |
| Nc1ncc(-c2cnn(C3CCN(C(=O)COCCOCCNC(=O)CNc4ccc5c(c4)C(=O)N(C4CCC(=O)NC4=O)C5=O)CC3)c2)nc1C(=O)O[C@@H](C(=O)Nc1ccc(F)cc1)c1ccccc1 (stereo partly drawn) [TDH-191, (R)-2-((4-fluorophenyl)amino)-2-oxo-1-phenylethyl 3-amino-6-(1-(1-(2-(2-(2-(2-((2-(2,6-dioxopiperidin-3-yl)-1,3-dioxoisoindolin-5-yl)amino)acetamido)ethoxy)ethoxy)acetyl)piperidin-4-yl)-1H-pyrazol-4-yl)pyrazine-2-carboxylate] | 44.99 | 5.25 | 4.9 | – | – | 77.85 | 49.93 |
| Nc1ncc(-c2cnn(C3CCN(CCOCCOCCNC(=O)COc4cccc5c4C(=O)N(C4CCC(=O)NC4=O)C5=O)CC3)c2)nc1C(=O)O[C@@H](C(=O)Nc1ccc(F)cc1)c1ccccc1 (stereo partly drawn) [TDH-135, (R)-2-((4-fluorophenyl)amino)-2-oxo-1-phenylethyl 3-amino-6-(1-(1-(2-(2-(2-(2-((2-(2,6-dioxopiperidin-3-yl)-1,3-dioxoisoindolin-4-yl)oxy)acetamido)ethoxy)ethoxy)ethyl)piperidin-4-yl)-1H-pyrazol-4-yl)pyrazine-2-carboxylate] | 23.45 | 57.93 | 0.91 | – | – | 46.82 | 33.77 |

Further lines, with some results ahead:

| Degradation assay (Degradation %) 1 μM [1] [%] | Degradation assay (Degradation %) 10 μM [1] [%] | Kd [3] [nM] | SMILES | Necroptosis inhibition assay (Rescue %) 1 μM ([2]; FADD−/− Jurkat cells) [%] | Necroptosis inhibition assay (Rescue %) 10 μM ([2]; FADD−/− Jurkat cells) [%] | Necroptosis inhibition assay (Rescue %) 1 μM [2] [%] | Necroptosis inhibition assay (Rescue %) 10 μM [2] [%] |
| --- | --- | --- | --- | --- | --- | --- | --- |
| 93.36 | 68.21 | 0.43 | Nc1ncc(-c2cnn(C3CCN(CCC4CCN(C(=O)c5ccc6c(c5)CN(C5CCC(=O)NC5=O)C6=O)CC4)CC3)c2)nc1C(=O)O[C@@H](C(=O)Nc1ccc(F)cc1)c1ccccc1 (stereo partly drawn) [TDH-547, (R)-2-((4-fluorophenyl)amino)-2-oxo-1-phenylethyl 3-amino-6-(1-(1-(2-(1-(2-(2,6-dioxopiperidin-3-yl)-1-oxoisoindoline-5-carbonyl)piperidin-4-yl)ethyl)piperidin-4-yl)-1H-pyrazol-4-yl)pyrazine-2-carboxylate] | 35.18 | 19.80 | – | – |
| 93.95 | 86.45 | 0.5 | Nc1ncc(-c2cnn(C3CCN(CCCN4CC5CN(C(=O)CNc6ccc7c(c6)C(=O)N(C6CCC(=O)NC6=O)C7=O)CC5C4)CC3)c2)nc1C(=O)O[C@@H](C(=O)Nc1ccc(F)cc1)c1ccccc1 (stereo partly drawn) [TDH-467, (R)-2-((4-fluorophenyl)amino)-2-oxo-1-phenylethyl 3-amino-6-(1-(1-(3-(5-((2-(2,6-dioxopiperidin-3-yl)-1,3-dioxoisoindolin-5-yl)glycyl)hexahydropyrrolo[3,4-c]pyrrol-2(1H)-yl)propyl)piperidin-4-yl)-1H-pyrazol-4-yl)pyrazine-2-carboxylate] | 54.19 | −9.09 | – | – |
| 35.85 | 29.42 | 1.9 | Nc1ncc(-c2cnn(C3CCN(CCCCCCNC(=O)CNc4cccc5c4C(=O)N(C4CCC(=O)NC4=O)C5=O)CC3)c2)nc1C(=O)O[C@@H](C(=O)Nc1ccc(F)cc1)c1ccccc1 (stereo partly drawn) [TDH-101, (R)-2-((4-fluorophenyl)amino)-2-oxo-1-phenylethyl 3-amino-6-(1-(1-(6-(2-((2-(2,6-dioxopiperidin-3-yl)-1,3-dioxoisoindolin-4-yl)amino)acetamido)hexyl)piperidin-4-yl)-1H-pyrazol-4-yl)pyrazine-2-carboxylate] | – | – | 50.77 | 18.45 |
| 49.26 | 56.93 | 19 | Nc1ncc(-c2cn(C3CCN(CC4CCN(C(=O)CNc5cccc6c5C(=O)N(C5CCC(=O)NC5=O)C6=O)CC4)CC3)nn2)nc1C(=O)OC(C(=O)Nc1ccc(F)cc1)c1ccccc1 (centres unmarked) [TDH-224, 2-((4-fluorophenyl)amino)-2-oxo-1-phenylethyl 3-amino-6-(1-(1-((1-((2-(2,6-dioxopiperidin-3-yl)-1,3-dioxoisoindolin-4-yl)glycyl)piperidin-4-yl)methyl)piperidin-4-yl)-1H-1,2,3-triazol-4-yl)pyrazine-2-carboxylate] | – | – | 63.63 | 67.66 |
| 73.39 | 82.10 | 0.99 | Nc1ncc(-c2cnn(C3CCN(C(=O)COC4CCN(C(=O)COc5cccc6c5C(=O)N(C5CCC(=O)NC5=O)C6=O)CC4)CC3)c2)nc1C(=O)O[C@@H](C(=O)Nc1ccc(F)cc1)c1ccccc1 (stereo partly drawn) [TDH-393, (R)-2-((4-fluorophenyl)amino)-2-oxo-1-phenylethyl 3-amino-6-(1-(1-(2-((1-(2-((2-(2,6-dioxopiperidin-3-yl)-1,3-dioxoisoindolin-4-yl)oxy)acetyl)piperidin-4-yl)oxy)acetyl)piperidin-4-yl)-1H-pyrazol-4-yl)pyrazine-2-carboxylate] | – | – | 27.21 | 38.01 |
